Holding throughout (assay type): in vivo
Assay [1] relates to Echinochloa crus-galli. The experiment in a line: Post-emergence herbicidal effect, greenhouse pot test. As to conditions: 504 h, 80 g a.i./ha, one-leaf stage, visual score after about 3 weeks, 100% = plants have died, read-out: Herbicidal effect against [%] ECHCG. As for the experimental part:
(§1) [table] Seeds of monocotyledonous and dicotyledonous weed and crop plants are laid out in sandy loam in wood-fibre pots, covered with soil and cultivated in a greenhouse under good growth conditions. 2 to 3 weeks after sowing, the test plants are treated at the one-leaf stage. The compounds according to the invention, formulated in the form of wettable powders (WP) or as emulsion concentrates (EC), are then sprayed as aqueous suspension or emulsion at a water application rate of 600 to 800 l/ha (converted) with the addition of 0.2% of wetting agent onto the green parts of the plants. After the test plants have been left to stand in the greenhouse under optimal growth conditions for about 3 weeks, the action of the preparations is assessed visually in comparison to untreated controls (herbicidal action in percent (%): 100% activity=the plants have died, 0% activity=like control plants).

Assay [2] relates to Setaria viridis. The assay is described as above. As to conditions: 504 h, 80 g a.i./ha, one-leaf stage, visual score after about 3 weeks, 100% = plants have died, read-out: Herbicidal effect against [%] SETVI. As for the experimental part:
as §1

Assay [3] concerns Alopecurus myosuroides. The assay is described as above. As to conditions: 504 h, 80 g a.i./ha, one-leaf stage, visual score after about 3 weeks, 100% = plants have died, read-out: Herbicidal effect against [%] ALOMY. On the procedure: as §1
Another assay deals with Lolium multiflorum. Nature of the assay: Pre-emergence herbicidal effect, greenhouse pot test. As to conditions: 320 g a.i./ha, visual score after 3 weeks, 100% = plants have died, 0% = like control. The text has this: (§2) Seeds of monocotyledonous and dicotyledonous weed plants and crop plants are laid out in wood-fibre pots in sandy loam and covered with soil. The compounds according to the invention formulated in the form of wettable powders (WP) or as emulsion concentrates (EC) are then applied as aqueous suspension or emulsion at a water application rate of 600 to 800 l/ha (converted) with the addition of 0.2% wetting agent to the surface of the covering soil. After the treatment, the pots are placed in a greenhouse and kept under good growth conditions for the trial plants. The damage to the test plants is scored visually after a test period of 3 weeks by comparison with untreated controls (herbicidal activity in percent (%): 100% activity=the plants have died, 0% activity=like control plants). [table]

Assay [4] has as its system Echinochloa crus-galli. The assay is described as above. As to conditions: 504 h, 320 g a.i./ha, visual score after 3 weeks, 100% = plants have died, 0% = like control, read-out: Herbicidal effect against [%] ECHCG.
Description: as §2

Assay [5] deals with Setaria viridis. The assay is described as above. As to conditions: 504 h, 320 g a.i./ha, visual score after 3 weeks, 100% = plants have died, 0% = like control, read-out: Herbicidal effect against [%] SETVI.
Description: as §2

The test system of another assay is Avena fatua. The description is as above. As to conditions: 504 h, 320 g a.i./ha, visual score after 3 weeks, 100% = plants have died, 0% = like control, read-out: Herbicidal effect against [%] AVEFA.
Description: as §2

For assay [6], the system named is Alopecurus myosuroides. Described as above. As to conditions: 504 h, 320 g a.i./ha, visual score after 3 weeks, 100% = plants have died, 0% = like control, read-out: Herbicidal effect against [%] ALOMY.
Description: as §2

Turning to `CCOC(=O)OC1=C(c2c(C)cc(C#CC3CC3)cc2CC)C(=O)NC12CCC(OC)CC2` (centres unmarked) [Example P14], the pest or weed control at 80 g/ha with Echinochloa crus-galli [1], in the assay on Setaria viridis [2] and in the assay with Alopecurus myosuroides [3] was 90 to 100% in each case. Further, the “Herbicidal effect against [%] LOLMU” value in the assay with Lolium multiflorum turned out to be 100%. Also, the pest or weed control at 320 g/ha in the assay on Echinochloa crus-galli [4], in the assay with Setaria viridis [5], in the assay on Avena fatua and with Alopecurus myosuroides [6] was 80 to 100% each time.
For `CCc1cc(C#CC2CC2)cc(C)c1C1=C(OC(=O)C(C)C)C2(CCC(OC)CC2)NC1=O` (centres unmarked) [Example P15], the pest or weed control at 80 g/ha in the assay on Echinochloa crus-galli [1], in the assay with Setaria viridis [2] and with Alopecurus myosuroides [3] was 90 to 100% in each case. For the same compound, the “Herbicidal effect against [%] LOLMU” value in the assay with Lolium multiflorum amounted to 100%. Further, the pest or weed control at 320 g/ha in the assay on Echinochloa crus-galli [4], in the assay on Setaria viridis [5], in the assay on Avena fatua and in the assay with Alopecurus myosuroides [6] was 80 to 100% each time.
Turning to `COC1CCC2(CC1)NC(=O)C(c1c(C)cc(C#CC3CC3)cc1C)=C2O` (stereo not drawn) [Example D11, cis-3-[4-(Cyclopropylethynyl)-2,6-dimethylphenyl]-4-hydroxy-8-methoxy-1-azaspiro[4.5]dec-3-en-2-one], the pest or weed control at 80 g/ha in the assay with Echinochloa crus-galli [1], in the assay with Setaria viridis [2] and with Alopecurus myosuroides [3] was 90 to 100% in each case. In addition, the “Herbicidal effect against [%] LOLMU” value in the assay with Lolium multiflorum is 100%. The pest or weed control at 320 g/ha in the assay with Echinochloa crus-galli [4], in the assay on Setaria viridis [5], in the assay on Avena fatua and in the assay with Alopecurus myosuroides [6] was 80 to 100% throughout.
Regarding `CCc1cc(C#CC2CC2)cc(C)c1C1=C(O)C2(CCC(OC)CC2)NC1=O` (centres unmarked) [Example D10], the pest or weed control at 80 g/ha in the assay with Echinochloa crus-galli [1], in the assay on Setaria viridis [2] and with Alopecurus myosuroides [3] was 90 to 100% each time. In addition, in the assay on Lolium multiflorum, the “Herbicidal effect against [%] LOLMU” value came to 100%. Moreover, the pest or weed control at 320 g/ha in the assay with Echinochloa crus-galli [4], in the assay on Setaria viridis [5], in the assay on Avena fatua and in the assay on Alopecurus myosuroides [6] was 80 to 100% each time.
